Data: PubChem BioAssay AID179 (DTP/NCI, 2004)
Several values for one entry are separate records, joined by “and”; a condition that tells them apart may be missing. Equal values may be shown once. Activity calls are given as the source filed them.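 The calls were made as follows: active = compounds giving half or more protection of infected cells from virus-caused growth loss, again on retest; inactive = the rest.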 Where a SMILES comes first, the peptide text is derived from it. The star is where a group is joined. ONp = O=[N+]([O-])c1ccc(O*)cc1; Cbz = O=C(OCc1ccccc1)*; OBn = c1ccc(CO*)cc1

Test system: CEM cells HIV-1 protection, formazan growth assay
Experiment: NCI AIDS Antiviral Assay
Conditions: for IC50: measured here: growth of uninfected CEM cells
Experimental: The ability of compounds to protect human CEM cells from HIV-1 infection is measured as a screen for new compounds capable of inhibiting the HIV virus. Five concentrations of drug were tested on uninfected and infected cells and cell growth was measured using a soluble formazan assay. […] Compounds that provided at least 50% protection were retested. Compounds that provided at least 50% protection on retest were listed as moderately active. Compounds that reproducibly provided 100% protection were listed as confirmed active. […] Note that the inability to provide protection could be due to toxicity.

| SMILES | EC50 | IC50 | outcome |
| --- | --- | --- | --- |
| COc1cc(OC)c2c(=O)c3c([N+](=O)[O-])cccc3n(C)c2c1 | > 100 µM | > 100 µM |  |
| CN(C)CCOC1(Cc2ccc(Cl)cc2Cl)CCC(C(C)(C)C)CC1 (stereo unspecified) | > 200 µM | 2.14 µM and 3.72 µM |  |
| COc1nc(NC2OC(CO)C(O)C2O)cc(=O)n1C (stereo unspecified) |  |  | inactive |
| COc1cc(C2C(Cl)C(=O)N2n2cnc3ccccc3c2=O)cc(OC)c1OC (stereo unspecified) | > 6.61 µM | > 6.61 µM |  |
| Nc1nc(C[P+](c2ccccc2)(c2ccccc2)c2ccccc2)c(CCCCc2ccccc2)c(=O)[nH]1 | > 200 µM | 33.1 µM |  |
| CN1C2=C(CC3=C1CC(C)(C)CC3=O)C(=O)CC(C)(C)C2 | > 100 µM | > 100 µM |  |
| O=P1(Nc2ccccc2)NCCCO1 (stereo unspecified) | > 200 µM | > 200 µM |  |
| COc1cc(C2C(C(=O)Nc3ccccc3)=C(C)NC(C)=C2C(=O)Nc2ccccc2)ccc1O |  |  | inactive |
| NC1=NS(=O)(=O)N=C(N)C1=NNc1ccc([N+](=O)[O-])cc1 | > 794 µM | 126 µM |  |
| CC1(C)C2CCC3(OCCO3)C1C(O)C2 (stereo unspecified) | > 427 µM | > 427 µM |  |
| O=C(O)CSc1n[nH]c(-c2ccccc2O)n1 | > 372 µM | 182 µM |  |
| COc1cccc2c1C(=O)C1(O)CCCCC21 (stereo unspecified) | 44.7 µM | > 200 µM |  |
| O=C1c2ccccc2NC(=O)C2C1C(c1ccccc1)CC2(O)c1ccccc1 (stereo unspecified) | > 200 µM | 33.1 µM |  |
| O=C(CNC(=O)C(CCC(=O)OCc1ccccc1)NC(=O)OCc1ccccc1)NCC(=O)NC(CO)C(=O)NCC(=O)Oc1ccc([N+](=O)[O-])cc1 (stereo unspecified) (Cbz-E(OBn)GGSG-ONp; configuration not given here) | > 91.2 µM | > 91.2 µM |  |
| OCC1(CO)COC2(CCCCC2)N1 | > 1230 µM | > 1230 µM |  |
| CCOC(=O)C(NCc1cccc(C(F)(F)F)c1)(NC(=O)CC)C(F)(F)F (stereo unspecified) | > 200 µM | > 100 µM |  |
| CCCCCCCCCCC(c1cc(Cl)c(OC)c(C(=O)OC)c1)c1cc(Cl)c(OC)c(C(=O)OC)c1 | > 38.9 µM | > 38.9 µM |  |
| Cc1cc(NC(=O)NC(=O)c2ccccc2[N+](=O)[O-])ccc1Oc1ncc(Cl)cn1 |  |  | inactive |
| CCCCCCCCCC=C(c1cc(Br)cc(C(=O)O)c1OC)c1cc(Br)cc(C(=O)O)c1OC | > 1200 µM | 75.9 µM |  |
| CCC(=O)Nc1nc2c(ncn2C2OC(COC(=O)CC)C(OC(=O)CC)C2OC(=O)CC)c(=O)[nH]1 (stereo unspecified) | > 355 µM | 309 µM |  |
| CC1C2CC3(c4ccccc4)CC(/C2=N\O)/C(=N/O)C1/C3=C\O (stereo unspecified) | > 200 µM | > 200 µM |  |

| SMILES | EC50 | IC50 | outcome |
| --- | --- | --- | --- |
| O=c1[nH]c2c(cnn2-c2ccccc2)c(=O)n1OS(=O)(=O)c1ccccc1 | > 200 µM | > 200 µM |  |
| CC1=C(C)C(=O)c2c(cc3c4ccccc4ccn23)C1=O |  |  | inactive |
| C/C(=C(/SS/C(C(=O)O)=C(/C)c1cccc(O)c1)C(=O)O)c1cccc(O)c1 | > 200 µM | 135 µM |  |
| NNC(=O)c1c/c(=N\NC(=O)CC(=O)Nc2ccccc2Cl)c2ccccc2o1 | > 1.74 µM | > 1.74 µM |  |
| CC(=O)Nc1nc(N)nc(NC(C)=O)c1N=O | > 200 µM | 30.9 µM |  |
| Cn1c(=O)oc2cc(C(=S)N3CCC(Cc4ccccc4)CC3)ccc21 | > 200 µM | > 200 µM |  |
| COC(=O)c1cc(C(c2cc(C)c(O)c(C(=O)OC)c2)c2cc(C)c(O)c(C(=O)OC)c2)cc(C)c1O |  |  | inactive |
| N#CCCN(CCC#N)c1ccc(/C=C(\NC(=O)c2cc([N+](=O)[O-])ccc2Cl)C(=O)Nc2ccccc2)cc1 | > 13.2 µM | > 13.2 µM |  |
| O=C(Nc1ccc(Cl)cc1)Nc1cccc2nsnc12 | > 32.4 µM | 20.4 µM |  |
| Clc1ccccc1C1SCc2nc3ccccc3n21 (stereo unspecified) |  |  | inactive |
| Cc1cc(Cl)c2c(c1)C(=N/O)/C(=C\c1ccco1)O2 | > 200 µM | 10.2 µM |  |
| COc1ccc(/C=C(\C#N)c2cccnc2)cc1OC | > 25.1 µM | 23.4 µM |  |
| CCc1cccc(C(C)C)c1NC(=O)C(=O)C(Cc1nc2ccccc2[nH]c1=O)C(=O)OC (stereo unspecified) | > 112 µM | > 112 µM |  |
| O=C1c2c(O)ccc([N+](=O)[O-])c2C(=O)c2c(O)ccc(Nc3cccc(CO)c3)c21 | > 200 µM | 0.724 µM |  |
| C=CCn1c(=O)c2ccccc2[n+]2c(C)c(C(=O)OCC)sc12 | 132 µM | > 200 µM |  |
| O=C1C(=Cc2cccc(O)c2)N=C(c2ccccc2)N1n1c(-c2ccccc2)nc2ccccc2c1=O | > 200 µM | 8.51 µM |  |
| C1C2CC3C1C1CN3C21 (stereo unspecified) | > 724 µM | > 724 µM |  |
| COc1cc2c(OC)c(-c3c(C)cc4c(C(C)C)c(OC)c(OC)cc4c3OC)c(C)cc2c(C(C)C)c1OC |  |  | inactive |
| CCN(CC)C1C2=C(CCCC2)OS(=O)(=O)C1c1ccccc1 (stereo unspecified) | > 40.7 µM | > 40.7 µM |  |
| CN(/N=C/c1ccc(Cl)c(Cl)c1)C1=NCCCCN1 | > 200 µM | 26.3 µM |  |
| Cc1cc(C(C)C)cc(O)c(=O)c1 |  |  | inactive |

| SMILES | EC50 | IC50 | outcome |
| --- | --- | --- | --- |
| CCCCOB(OCCCC)OCCCC | > 200 µM | > 200 µM |  |
| C=CCC1(OC(C)=O)C2OC(=O)C1(O)OCC2O (stereo unspecified) | > 200 µM | > 200 µM |  |
| c1ccc(N2N=NC3C4CC(C5COCC54)C32)cc1 (stereo unspecified) | > 200 µM | > 200 µM |  |
| COc1cccc(CN2CC(C)N(N=Cc3c4c(O)c5c(O)c(C)c6c(c5c3O)C(=O)C(C)(O/C=C/C(OC)C(C)C(OC(C)=O)C(C)C(O)C(C)C(O)C(C)/C=C/C=C(\C)C(=O)N4)O6)C(C)C2)c1 (stereo unspecified) | > 200 µM | 7.24 µM |  |
| COC1(OC)C2(Cl)CC(OC(C)=O)C1(Cl)C(Cl)=C2Cl (stereo unspecified) | > 200 µM | > 100 µM |  |
| COc1ccc(C2=NN(c3nsc4ccccc34)C(=O)CC2)cc1 | > 40.7 µM | > 40.7 µM |  |
| O=c1cc(-c2ccccc2)ss1 | > 200 µM | 105 µM |  |
| Nc1ncc(Sc2ccccc2C(=O)O)s1 | > 200 µM | > 200 µM |  |
| C[Si](C)(OCCS(=O)(=O)O)C1S(=O)(=O)OCCOS1(=O)=O | > 200 µM | 60.3 µM |  |
| CN(C)CCOc1ccc([N+](=O)[O-])c2cccnc12 | > 100 µM | 50.1 µM |  |
| COc1ccc(-c2cc(=O)c3c(O)cccc3o2)cc1 | > 200 µM | > 200 µM |  |
| O=C1c2c(ccc3c2CCCC3)CC1Cc1ccc2c(c1)CCCC2 (stereo unspecified) | > 200 µM | > 200 µM |  |
| CC(=O)Oc1ccc2c(c1)O/C(=C\c1ccc(O)cc1)C2=O | > 200 µM | 138 µM |  |
| CC(C)(C)OC(=O)C1C(=O)C(C(=O)OC(C)(C)C)C2(C)C(C(=O)OC(C)(C)C)C(=O)C(C(=O)OC(C)(C)C)C12C (stereo unspecified) | > 31.6 µM | 11.2 µM |  |
| Cc1nc(C(N)=S)sc1C(=O)CC(=O)C(=O)Nc1nc2ccccc2[nH]1 | > 93.3 µM | > 93.3 µM |  |
| CC12CCC(C(=O)OC1=O)C(C)(C)O2 (stereo unspecified) | > 200 µM | > 200 µM |  |
| COc1ccccc1NC(=S)NNC(=O)c1cc(-c2ccccc2)nc2ccccc12 | > 200 µM | 11.5 µM |  |
| O=c1[nH]nc(Cc2ccccc2)n1Nc1ccccc1 | > 200 µM | > 200 µM |  |
| COC1=CC2=C3[C@H](Cc4cc5c(c(c4)Oc4ccc(cc4)C[C@@H]4c6cc7c(cc6CCN4C)OC[C@]3(O7)C1=O)OCO5)N(C)CC2 |  |  | inactive |
| O=C1C=CC(=O)c2c(O)c(CO)c(CO)c(O)c21 |  |  | inactive |
| O=C(O)CCN(CCC(=O)O)c1ccc(/C=C2\SC(=S)NC2=O)cc1 | > 200 µM | 170 µM |  |
